What all share (experiment): relative viability (nuclei count vs DMSO), 5 days (fraction); higher = more cells survive
Compound in the assay “MLN4924 + Tozasertib”: NS(=O)(=O)OC[C@@H]1C[C@@H](n2ccc3c(N[C@H]4CCc5ccccc54)ncnc32)C[C@@H]1O [MLN4924] + Cc1cc(Nc2cc(N3CCN(C)CC3)nc(Sc3ccc(NC(=O)C4CC4)cc3)n2)n[nH]1 [Tozasertib] (partner 0.1 µM)
In short, it runs like this:
(§1)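 The day after seeding in 1536-well plates, lung cancer cell lines were treated by pin tool with a single drug, or with a fixed anchor-drug dose together with five library-drug doses (not always all listed) in √10 steps. After 5 days, a combined fix-and-stain solution (final 0.05% Triton X-100, 1% formaldehyde, 1 ug/ml Hoechst) was added. Nuclei counted on 4× images gave relative viability as treated counts over vehicle counts, reported as the median of duplicate plates.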

Compound in the assay “MLN4924 + Alpelisib”: NS(=O)(=O)OC[C@@H]1C[C@@H](n2ccc3c(N[C@H]4CCc5ccccc54)ncnc32)C[C@@H]1O [MLN4924] + Cc1nc(NC(=O)N2CCC[C@H]2C(N)=O)sc1-c1ccnc(C(C)(C)C(F)(F)F)c1 [Alpelisib] (partner 2 µM)
In short, it runs like this: as §1

Compound in the assay “GSK126 + Linsitinib”: CC[C@H](C)N1C=C(C2=C(C=C(C=C21)C3=CN=C(C=C3)N4CCNCC4)C(=O)NCC5=C(C=C(NC5=O)C)C)C [GSK126] + C[C@]1(O)C[C@@H](c2nc(-c3ccc4ccc(-c5ccccc5)nc4c3)c3c(N)nccn32)C1 [Linsitinib] (partner 1 µM)
In short, it runs like this: as §1

Compound in the assay “GSK126 + Foretinib”: CC[C@H](C)N1C=C(C2=C(C=C(C=C21)C3=CN=C(C=C3)N4CCNCC4)C(=O)NCC5=C(C=C(NC5=O)C)C)C [GSK126] + COc1cc2c(Oc3ccc(NC(=O)C4(C(=O)Nc5ccc(F)cc5)CC4)cc3F)ccnc2cc1OCCCN1CCOCC1 [Foretinib] (partner 0.25 µM)
In short, it runs like this: as §1

With UMC-11, the relative viability in the assay with MLN4924 + Tozasertib (first compound 0.04 µM) stood at 0.205; in the assay with MLN4924 + Tozasertib (first compound 0.1265 µM), 0.212; with MLN4924 + Tozasertib (first compound 0.4 µM), 0.215; with MLN4924 + Tozasertib (first compound 1.265 µM) it was 0.19; with MLN4924 + Tozasertib (first compound 4 µM) it was 0.184; in the assay with MLN4924 + Alpelisib (first compound 0.04 µM), 0.59. Besides, the relative viability stood at 0.249 with MLN4924 + Alpelisib (first compound 0.1265 µM); 0.254 in the assay with MLN4924 + Alpelisib (first compound 0.4 µM); 0.128 in the assay with MLN4924 + Alpelisib (first compound 1.265 µM); 0.13 with MLN4924 + Alpelisib (first compound 4 µM); 1.14 with GSK126 + Linsitinib (first compound 0.08 µM); 0.978 with GSK126 + Linsitinib (first compound 0.253 µM). The relative viability is 1.04 with GSK126 + Linsitinib (first compound 0.8 µM); 1.02 with GSK126 + Linsitinib (first compound 2.53 µM); 1.15 with GSK126 + Linsitinib (first compound 8 µM); 1.04 in the assay with GSK126 + Foretinib (first compound 0.08 µM); 1.04 in the assay with GSK126 + Foretinib (first compound 0.253 µM); 1.02 in the assay with GSK126 + Foretinib (first compound 0.8 µM). Besides, the relative viability came out at 1.03 with GSK126 + Foretinib (first compound 2.53 µM) and 1.19 with GSK126 + Foretinib (first compound 8 µM).

The values are drawn from the supplement of paper PMC10307832.
